Values joined by “and” are separate entries in the source; they are usually repeats but may differ in a detail not shown here. Equal entries are not always repeated.
Assay: In vivo metabolism studies, radio-HPLC of plasma, liver and urine
Set-up: species or system C3H/hej mice
Settings: for Recovery (plasma): extraction efficiency; for Parent (liver) / Recovery (liver): individual results from two samples
Method: [^18F]11 was injected intravenously into tumor-bearing mice and its tissue distribution was measured in selected tissues at 2, 15 and 60 min after injection. […] Furthermore, the in vivo metabolic stability of the radiotracer was determined from plasma and liver samples and, for [^18F]11, in urine samples.
In vivo metabolism studies were also performed in C3H/hej mice. […] Plasma, liver and urine samples were snap-frozen in liquid nitrogen and kept in pre-weighed scintillation counting tubes on dry ice prior to analysis.
Immediately prior to extraction the samples were thawed and placed on ice. For extraction, ice cold acetonitrile (1.5 mL) was added to plasma (0.2 mL); S9 incubation samples (3 mL) containing acetonitrile were also analysed. Each mixture was centrifuged (15493×g, 4° C., 3 min) and the resulting supernatant was evaporated to dryness under vacuum at 40° C. using a rotary evaporator. Liver samples were homogenized with ice cold acetonitrile (1.5 mL) using an IKA Ultra-Turrax T-25 homogeniser prior to centrifugation. The residues were then re-suspended in HPLC mobile phase (1.2 mL) and filtered through a Minisart hydrophilic syringe filter (0.2 μm) (Sartorius, Goettingen, Germany). Urine samples were diluted with HPLC mobile phase, filtered as above. The samples (1 mL) were then analyzed by radio-HPLC on an Agilent 1100 series HPLC system (Agilent Technologies, Stockport, UK) equipped with a γ-RAM Model 3 gamma-detector and the Laura software (IN/US Systems inc., Florida, USA).
The stationary phase comprised of a Waters μBondapak C18 reverse-phase column (300×7.8 mm). […] Furthermore, to assess the fraction of [^18F]9-derived radioactivity associated with the plasma and liver pellets after extraction versus that remaining in the HPLC injectate, the total volume of HPLC injectate was recorded and an aliquot (0.1 mL) removed for counting. The radioactivity in the 0.1 mL aliquot and the pellet were then analyzed by gamma counting (Packard Instruments).

## O=C1C(=O)N(Cc2cn(CC[18F])nn2)c2ccc(S(=O)(=O)N3CCC[C@H]3COc3ccc(F)cc3F)cc21 [[^18F]11, (S)-1-((1-(2-Fluoroethyl)-1H-[1,2,3]-triazol-4-yl)methyl)-5-(2(2,4-difluorophenoxymethyl)-pyrrolidine-1-sulfonyl)isatin]
2 min
  Recovery (plasma): 92.1 ± 3.4%
  Parent (liver): 35.7% and 43.4%
  Recovery (liver): 79.7% and 86.9%
2 min after i.v. injection, mice, radio-HPLC
  Parent (plasma): 86.1 ± 3.7%
15 min
  Recovery (plasma): 76.8 ± 5.2%
  Parent (liver): 9.7% and 10.2%
  Recovery (liver): 67.1% and 68.9%
15 min after i.v. injection, mice, radio-HPLC
  Parent (plasma): 61.3 ± 5.9%
60 min
  Recovery (plasma): 50.9 ± 3.7%
  Parent (liver): 27.0% and 29.7%
  Recovery (liver): 46.4% and 65.2%
60 min after i.v. injection, mice, radio-HPLC
  Parent (plasma): 64.8 ± 7.0%
radio-HPLC, plasma and liver, mice
  stability to metabolic degradation in vivo: relatively more stable to metabolic degradation than [^125I]14

Reference: patent US8961930B2, “Isatin derivatives for use as in vivo imaging agents” (Imperial Innovations Limited, priority 2008, dated 2015)
